Consider five compounds from patent publication US20260284049A1 (BRISTOL-MYERS SQUIBB COMPANY, priority 2023, published 2026).

The term Tmax denotes the time at which the peak concentration occurs.

The test system of data set [1] is activated partial thromboplastin time (aPTT). Kind of data set: AXIOMATIC-TKR: aPTT and ratio to baseline. It is filed as in vivo, human. The method, then:
In some embodiments, aPTT is measured as follows: Plasma samples are incubated with Actin FS aPTT assay reagent containing a standard amount of phospholipid and contact activator (ellagic acid) which activates the intrinsic coagulation pathway. After incubating for 3 minutes, calcium chloride is added to initiate coagulation and formation of a fibrin clot is measured optically. The time to clot formation (measured in seconds) is reported as the Activated Partial Thromboplastin Time (aPTT). […]
(§1) PD analyses were performed on the PD analysis set, defined as subjects who had at least one valid blood sample drawn for PD. Descriptive statistics (N, mean, SD, median, range, CV (%) and IQ range) were used to summarize PD response at each nominal sampling time point by treatment group. Changes from baseline were summarized when applicable. PD response outside of limit of quantitation were not to be imputed and were to be noted in the summary statistics.

Data set [2] has as its target Factor XI Activity (Homo sapiens, UniProt P03951). Kind of data set: AXIOMATIC-TKR: FXI clotting activity (FXI:c). In kind it is in vivo. More on the design: dose or concentration left out as unconfirmed. As to the method: As used herein, “Factor XI Clotting Activity” is determined utilizing an aPTT-based 1-stage clotting time assay. Serial dilutions of normal pooled plasma are mixed with FXI-depleted plasma and the clotting times are measured according to standard aPTT protocol, to establish a reference range. Subject test plasma is treated in the same way and compared with the reference plasma.
In some embodiments, the Factor XI Clotting Activity is measured as follows: Factor XI (FXI) activity is measured using a modification of the activated partial thromboplastin time (aPTT) using Actin FS (Siemens Healthcare) on the Siemens BCS® XP analyzer. […] The reference standard, at approximately 100%, is diluted by the BCS® XP analyzer in saline to generate pre-selected calibration levels of FXI. The calibration curve is plotted with FXI activity in percent (%) on the x-axis and clotting time in seconds on the y-axis. A log/lin regression curve fit is used. […] APTT reagent (Actin FS) is added and the mixture is incubated. Following incubation, calcium chloride is added to the mixture and the time to clot formation (measured optically) is compared to the time on the calibration curve. Samples are tested at the base dilution (1:10) prepared by the BCS® XP in saline.
(§2) Assessment of the dose-response for the occurrence of any bleeding was a secondary objective.
as §1

In data set [3] the test system is participants undergoing primary unilateral elective TKR surgery.
Data set [4] concerns QT/QTc interval (cardiac repolarization). It is filed as in vivo, human. From the text: The upper bound of two-sided 90% CI for the largest difference in mean change from baseline in QTc intervals (ΔQTc; […].
A total of 66 participants were enrolled in the study and randomly assigned to 1 of 4 possible treatment sequences. […].
Forty-five (68.2%) participants completed all 4 periods with study intervention as planned. […]

For data set [5], the system named is VTE prevention in orthopedic surgery. The note with it: cited from earlier work; for VTE prevention in orthopedic surgery vs enoxaparin 40 mg once daily: historical Phase 3 studies; for bleeding: Phase 2 orthopedic surgery studies and in combination with antiplatelets after an ACS.
The subject of data set [6] is participants with ischemic stroke or TIA. The note with it: for Hemorragic Stroke Incidence Rate (n/N %) / Subjects With Hemorragic Stroke n: up to Day 21. From the text:
The study enrolled participants ≥40 years of age who had ischemic stroke or TIA. Ischemic stroke was defined as a neurological deficit attributable to a non-lacunar, acute brain infarction detected by neuroimaging and relevant to the clinical symptoms and National Institutes of Health Stroke Score (NIHSS) ≤7 at the time of randomization. TIA was defined as acute onset neurological deficit attributable to focal ischemia of the brain by history or examination, with complete resolution of the deficit and no brain infarction on neuroimaging and ABCD score ≥6 or presence of motor symptoms. Evidence of relevant intracranial or cervical arterial atherosclerotic plaque, ulceration or thrombus in a feeding artery documented by imaging was required regardless of whether the index event was ischemic stroke or TIA, and all participants were required to have a Modified Rankin Score ≤3 before the index event. […] Following informed consent, participants received ASA 100 mg QD and a single loading dose of clopidogrel 300 mg if not already given as standard of care. […] A second MRI was performed on Day 90±6 days. All participants were required to remain on study treatment until the Day 90 MRI was performed up to Day 96.
From 27 Jan. […] The 200 mg BID arm was opened on 5 Jun.

Data set [7] in a line: clinical. The note with it: human, in vivo, po, median Tmax, healthy volunteers.
Data set [8] relates to thrombin generation. Kind of data set: AXIOMATIC-TKR: Thrombin Generation Assay (TGA): peak height, ETP, lag time. In kind it is in vivo, human. The note with it: Milvexian 25 mg QD; Day 10-14.
From the text: (§3) (AXIOMATIC-TKR Phase II).
As used herein, “Thrombin Generation Assay (TGA)” is a global coagulation assay that evaluates the thrombogenic capacity of a plasma sample and has been proposed that it may better reflect prothrombotic or hemorrhagic states than conventional clotting assays. In the traditional TGA, coagulation of citrated plasma is initiated through the extrinsic pathway by adding tissue factor, phospholipids, and calcium. For this study, in the in-vitro thrombin generation assay (TGA) using human platelet-rich plasma, and a kaolin slurry was used instead to initiate coagulation through the contact activation pathway. Thrombin generation is continuously monitored through the product released by cleavage of a thrombin-specific fluorogenic substrate.
as §2, §1

A short description of data set [9]: clinical. The note with it: human, in vivo, po.
From the text: as §3, §2

For data set [10], the system named is cardiac potassium (hERG/IKr) channel. Kind of data set: In vitro cardiac potassium channel current inhibition. The note with it: concentrations that greatly exceed unbound plasma concentrations. It is filed as cell-based.
Where [11] appears, read: 40 mg QD subcutaneous, Day 1 2 h.
Setting [12] is: 40 mg QD subcutaneous, Day 1 4 h.
[13] abbreviates: 40 mg QD subcutaneous, Day 2 Predose.
Setting [14] is: 40 mg QD subcutaneous, Day 4 4 h.
Where [15] appears, read: 40 mg QD subcutaneous, Day 4 Predose.
The mark [16] stands for this setting: 40 mg QD subcutaneous, Day 10-14.

Where two headings read alike, the source gives them in different places.

Sequence of Factor XI Activity (P03951 19-625): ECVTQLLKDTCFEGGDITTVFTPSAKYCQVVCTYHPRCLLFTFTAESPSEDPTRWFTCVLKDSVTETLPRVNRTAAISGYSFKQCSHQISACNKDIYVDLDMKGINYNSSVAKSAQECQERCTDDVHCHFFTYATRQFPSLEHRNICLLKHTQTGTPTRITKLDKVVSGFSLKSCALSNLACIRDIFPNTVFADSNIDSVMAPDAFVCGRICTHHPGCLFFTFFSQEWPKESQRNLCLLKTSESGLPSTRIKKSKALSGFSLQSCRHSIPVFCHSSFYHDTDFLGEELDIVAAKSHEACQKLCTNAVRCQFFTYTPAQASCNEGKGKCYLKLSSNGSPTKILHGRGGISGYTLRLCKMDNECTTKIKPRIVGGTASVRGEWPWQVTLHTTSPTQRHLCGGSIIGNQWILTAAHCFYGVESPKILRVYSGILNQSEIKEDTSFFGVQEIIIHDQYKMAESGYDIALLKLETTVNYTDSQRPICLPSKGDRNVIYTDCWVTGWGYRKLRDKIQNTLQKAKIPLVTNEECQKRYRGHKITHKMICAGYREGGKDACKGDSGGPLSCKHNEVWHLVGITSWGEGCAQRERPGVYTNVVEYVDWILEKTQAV

For the compound enoxaparin, the “aPTT Measured Value, Mean” value is 37.03 s in data set [1] (setting [11]); 29.14 s in data set [1] (setting [12]); 28.11 s in data set [1] (setting [13]); 27.37 s in data set [1] (setting [14]); 26.03 s in data set [1] (setting [15]); 27.8 s in data set [1] (setting [16]). Further, the “aPTT Measured Value, Med” value in [1] (setting [11]) is 27.5 s; in data set [1] (setting [12]) it was 27.75 s; in data set [1] (setting [13]), 27.4 s; in data set [1] (setting [14]), 26.1 s; in [1] (setting [15]), 25.8 s; in [1] (setting [16]), 25.9 s. In addition, the “Factor XI Activity Measured Value, Mean” value in data set [2] (Day 1 4 h) is 1.06 fraction of 1; in data set [2] (Day 10-14), 1.36 fraction of 1. Besides, the “Factor XI Activity Measured Value, Med” value in data set [2] (Day 1 4 h) is 1.07 fraction of 1; in data set [2] (Day 10-14), 1.39 fraction of 1. In data set [3] (40 mg QD subcutaneous (N=252)), the “Total VTE, participants n” value is on record as 54. Further, in data set [3] (40 mg once daily subcutaneous), the “total venous thromboembolism (VTE) rate” value came out at 21.4%.
Consider `COc1c(N2C[C@@H]3CCCN[C@@H]3C2)c(F)cc2c(=O)c(C(=O)O)cn(C3CC3)c12` [moxifloxacin, reference compound], for which the “participants with treatment-emergent change from baseline of QTcB >60 ms” value in data set [4] (single dose of 400 mg) amounted to 1.7%.
Turning to `O=C(NC[C@H]1CN(c2ccc(N3CCOCC3=O)cc2)C(=O)O1)c1ccc(Cl)s1` [rivaroxaban], the “VTE prevention in orthopedic surgery vs enoxaparin 40 mg once daily” value in data set [5] (10 mg once daily) was “superior to enoxaparin”. For the same compound, in data set [5], the bleeding entry is on record as “dose-related bleeding”.
On to `COc1ccc(-n2nc(C(N)=O)c3c2C(=O)N(c2ccc(N4CCCCC4=O)cc2)CC3)cc1` [apixaban], for which the “VTE prevention in orthopedic surgery vs enoxaparin 40 mg once daily” value in data set [5] (2.5 mg twice daily) is “superior to enoxaparin”. Besides, in data set [5], the bleeding entry is reported as “dose-related bleeding”.
With `C[C@@H]1CCC[C@H](n2cnc(-c3cc(Cl)ccc3-n3cc(Cl)nn3)cc2=O)c2cc(ccn2)-c2c(cnn2C(F)F)NC1=O` [milvexian, (5R,9S)-9-(4-(5-chloro-2-(4-chloro-1H-1,2,3-triazol-1-yl)phenyl)-6-oxopyrimidin-1(6H)-yl)-2^1-(difluoromethyl)-5-methyl-2^1H-3-aza-1(4,2)-pyridina-2(5,4)-pyrazolacyclonaphan-4-one], the “Hemorragic Stroke Incidence Rate (n/N %)” value in [6] (25 mg BID), in data set [6] (25 mg QD), in data set [6] (50 mg BID), in data set [6] (100 mg BID) and in data set [6] (200 mg BID) was 0 (0) % in each case. The “Subjects With Hemorragic Stroke n” value in data set [6] (25 mg BID), in data set [6] (25 mg QD), in data set [6] (50 mg BID), in [6] (100 mg BID) and in data set [6] (200 mg BID) was 0 (0) throughout. Further, in data set [6] (25 mg BID, up to Day 90), the “New Ischemic Stroke, MI and All Cause Death: Subjects With Event n” value was 15. The “Ischemic Stroke (n/N %)” value in data set [6] (25 mg QD, up to Day 90) is 4.6%. Besides, the “New Ischemic Stroke, MI and All Cause Death: Subjects With Event (n/N %)” value in [6] (25 mg QD, up to Day 90) is given as 5.2%; in [6] (100 mg BID, up to Day 90), 5.2%; in data set [6] (200 mg BID, up to Day 90), 9.4%. Further, the “HR for clinical ischemic strokes vs placebo” value in [6] (25 mg twice daily, 95% CI 0.36-1.30) was determined as 0.69. In addition, the “rate of early treatment discontinuation” value in [6] (200 mg BID, primarily due to AEs) is reported as 31.6%. For the same compound, in data set [1] (50 mg QD, Day 4 4 h), the “aPTT Measured Value, Med” value is 52 s. The “dose-response relationship for bleeding events” value in [3] (AXIOMATIC-TKR or AXIOMATIC-SSP) is “No dose-response relationship was observed”. In data set [3] (Phase 2 studies), the “fatal bleeding and symptomatic intracranial hemorrhage” value is “No fatal bleeding and no increases in symptomatic intracranial hemorrhage”. The “Total VTE, participants n” value in data set [3] (milvexian BID dose regimens (N=518)) is listed as 63. For the same compound, the Tmax in data set [7] (once daily) was 2 to 3 h; in [7] (twice daily) it was roughly 3 h. Also, the “changes over time in HR, RR interval, PR interval, or QRS width” value in data set [4] (100 mg and 200 mg twice daily) is reported as “No consistent or clinically relevant changes”. In data set [4] (100 mg and 200 mg twice daily for 4 days), the “treatment-emergent QTcF or QTcB >480 ms or changes from baseline >60 ms” value was “No treatment-emergent actual values of QTcF or QTcB >480 ms or changes from baseline >60 ms were observed”. The “upper bound of two-sided 90% CI for the largest ΔΔQTc (QTcF)” value in data set [4] (supratherapeutic 200 mg twice daily as solution) and in [4] (therapeutic 100 mg twice daily as capsule) was “less than 10 milliseconds” in each case. Further, in data set [4] (therapeutic (100 mg) and supratherapeutic (200 mg) doses, ICH E14), the QT/QTc interval prolongation entry is listed as “does not show evidence of QT/QTc interval prolongation of clinical or regulatory concern”. Further, the “ETP Lag Time, Measured Value, Med” value in data set [8] stood at 10.33 min. The Tmax at 96 h in data set [9] (Day 4, 25 mg and 100 mg twice daily) was roughly 2 h; in [9] (Day 4, 50 mg and 200 mg once daily), roughly 4 h. Also, in [10], the “inhibition of cardiac potassium (hERG/IKr) channel currents” value is given as “weak to moderate potency”.
